Test results from US8519134B2, “Aryl-pyridine derivatives as aldosterone synthase inhibitors” (Novartis AG, priority 2009, dated 2013).
Structures can show the parent of a compound that is named as a salt.

Tests used:
CYP11B2 (aldosterone) = molecular target: T1, CYP11B2 (aldosterone) (Homo sapiens, UniProt P19099); experiment: Inhibition of aldosterone production in NCI-H295R cells (Ang II stimulated, SPA); format: cell-based; settings: inhibitory activity on aldosterone production, read-out: Aldosterone (cell)
T1 construct: host or cells: NCI-H295R (human adrenocortical carcinoma)
T1 sequence (P19099 25-503): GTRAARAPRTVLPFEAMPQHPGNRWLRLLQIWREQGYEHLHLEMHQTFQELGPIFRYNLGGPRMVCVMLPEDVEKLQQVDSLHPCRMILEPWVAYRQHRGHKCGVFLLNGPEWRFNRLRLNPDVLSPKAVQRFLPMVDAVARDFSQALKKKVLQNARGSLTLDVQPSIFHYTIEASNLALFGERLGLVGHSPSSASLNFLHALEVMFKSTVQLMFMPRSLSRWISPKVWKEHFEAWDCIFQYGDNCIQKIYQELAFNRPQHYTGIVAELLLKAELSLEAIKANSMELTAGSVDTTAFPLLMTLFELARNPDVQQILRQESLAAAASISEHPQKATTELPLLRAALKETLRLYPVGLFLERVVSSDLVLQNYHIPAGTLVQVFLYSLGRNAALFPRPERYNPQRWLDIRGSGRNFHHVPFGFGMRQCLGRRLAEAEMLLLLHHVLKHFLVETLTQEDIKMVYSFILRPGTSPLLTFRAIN
Text: In particular, the aldosterone synthase inhibitory activities in vitro can be determined by the following assay.
Human adrenocortical carcinoma NCI-H295R cell line was obtained from American Type Culture Collection (Manassas, Va.). Insulin/transferrin/selenium (ITS)-A supplement (100×), DMEM/F-12, antibiotic/antimycotic (100×), and fetal bovine serum (FBS) were purchased from Invitrogen (Carlsbad, Calif.). Anti-mouse PVT scintillation proximity assay (SPA) beads and NBS 96-well plates were obtained from GE Health Sciences (Piscataway, N.J.) and Corning (Acton, Mass.), respectively. Solid black 96-well flat bottom plates were purchased from Costar (Corning, N.Y.). Aldosterone and angiotensin (Ang II) were purchased from Sigma (St. Louis, Mo.). D-[1,2,6,7-^3H(N)]aldosterone was acquired from PerkinElmer (Boston, Mass.). Nu-serum was a product of BD Biosciences (Franklin Lakes, N.J.).
For in vitro measurement of aldosterone activity, human adrenocortical carcinoma NCI-H295R cells are seeded in NBS 96-well plates at a density of 25,000 cells/well in 100 μl of a growth medium containing DMEM/F12 supplemented with 10% FCS, 2.5% Nu-serum, 1 μg ITS/ml, and 1× antibiotic/antimycotic. The medium is changed after culturing for 3 days at 37° C. under an atmosphere of 5% CO2/95% air. On the following day, cells are rinsed with 100 μl of phosphate-buffered saline (PBS) and incubated with 100 μl of treatment medium containing 1 μM Ang II and a compound at different concentrations in quadruplicate wells at 37° C. for 24 hr. At the end of incubation, 50 μl of medium is withdrawn from each well for measurement of aldosterone production by an SPA using mouse anti-aldosterone monoclonal antibodies.
Measurement of aldosterone activity can also be performed using a 96-well plate format. Each test sample is incubated with 0.02 μCi of D-[1,2,6,7-^3H(N)]aldosterone and 0.3 μg of anti-aldosterone antibody in PBS containing 0.1% Triton X-100, 0.1% bovine serum albumin, and 12% glycerol in a total volume of 200 μl at room temperature for 1 hr. Anti-mouse PVT SPA beads (50 μl) are then added to each well and incubated overnight at room temperature prior to counting in a Microbeta plate counter. The amount of aldosterone in each sample is calculated by comparing with a standard curve generated using known quantities of the hormone.
The inhibition activity of aldosterone production can also be expressed in percentage inhibition (% inhibition) at a given concentration (e.g. % inhibition at 1 μM), which is the aldosterone level when the cell is treated with the given concentration of a compound of this invention (e.g. concentration of 1 μM) versus the aldosterone excretion when cell is free of the compound of the invention: % inhibition aldosterone production=[(Y−X)/Y]×100 wherein X is the level of aldosterone when the cell is treated with a compound according to anyone of Formulae I to V, or a pharmaceutically acceptable salt thereof; and Y is the level of aldosterone when the cell is free of compound according to anyone of Formulae I to V.

CYP11B1(cortisol) = molecular target: T2, CYP11B1(cortisol) (Homo sapiens, UniProt P15538); experiment: Inhibition of cortisol production in NCI-H295R cells; format: cell-based; settings: inhibitory activity on cortisol production, read-out: Cortisol (cell)
T2 construct: Thus, the NCI-H295R cells have CYP11 B1 (steroid 11 β-hydroxylase); host or cells: NCI-H295R (human adrenocortical carcinoma)
T2 sequence (P15538 25-503): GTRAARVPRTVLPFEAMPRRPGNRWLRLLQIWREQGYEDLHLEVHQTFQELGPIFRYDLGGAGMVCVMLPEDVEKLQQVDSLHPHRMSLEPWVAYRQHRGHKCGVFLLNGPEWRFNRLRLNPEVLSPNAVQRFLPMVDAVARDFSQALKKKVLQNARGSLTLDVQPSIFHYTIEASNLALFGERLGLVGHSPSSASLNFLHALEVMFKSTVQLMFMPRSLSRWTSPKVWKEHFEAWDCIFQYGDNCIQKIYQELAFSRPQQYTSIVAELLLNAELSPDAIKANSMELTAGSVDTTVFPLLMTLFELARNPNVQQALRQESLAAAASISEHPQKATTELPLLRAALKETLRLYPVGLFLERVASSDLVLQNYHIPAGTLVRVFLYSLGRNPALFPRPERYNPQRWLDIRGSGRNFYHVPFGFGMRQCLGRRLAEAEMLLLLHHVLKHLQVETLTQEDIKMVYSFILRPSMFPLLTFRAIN
Text: The in vitro inhibitory activities for CYP11B1 can be determined by the following assay.
The cell line NCI-H295R was originally isolated from an adrenocortical carcinoma and has been characterized in the literature through the stimulable secretion of steroid hormones and the presence of the enymes essential for steroidogenesis. Thus, the NCI-H295R cells have CYP11 B1 (steroid 11 β-hydroxylase). The cells show the physiological property of zonally undifferentiated human foetal adrenocortical cells which, however, have the capacity to produce the steroid hormones which are formed in the three, phenotypically distinguishable zones in the adult adrenal cortex.
The NCI-H295R cells (American Type Culture Collection, ATCC, Rockville, Md., USA) are grown in Dulbeoco's Modified Eagle'Ham F-12 Medium (DME/F12), which has been supplemented with Ulroser SF Serum (Soprachem, Cergy-Saint-Christophe, France), insulin, transferrin, selenite (I-T-S, Becton Dickinson Biosiences, Franklin lakes, NJ, USA) and antibiotics in 75 cm^2 cell culture vessels at 37° C. and in a 95% air-5% carbon dioxide atmosphere. The cells are subsequently transferred for colony formation into a 24-well incubation vessel. They are cultivated there in DME/F12 medium, which is now supplemented with 0.1% bovine serum instead of Ultroser SF for 24 hours. The experiment is initiated by cultivating the cells in DME/F12 medium which is supplemented with 0.1% bovine serum albumin and test compound, in the presence or absence of cell stimulants, for 72 hours. The test substance is added in a concentration range from 0.2 nanomolar to […]. Cell stimulants which can be used are angiotensin 11 ([…] or 100 nanomolar), potassium ions (16 millimolar), forskolin (10 micromolar) or a combination of two stimulants.
The excretion of aldosterone, cortisol, corticosterone and estradiol/estrone into the culture medium can be detected and quantified by commercially available, specific monoclonal antibodies in radioimmunoassays in accordance with the manufacturers instructions.
Inhibition of the release of certain steroids can be used as a measure of the respective enzyme inhibition by the added test compounds. The dose-dependent inhibition of enzymic activity by a compound is calculated by means of an inhibition plot which is characterized by an IC50.
The IC50 values for active test compounds are ascertained by a simple linear regression analysis in order to construct inhibition plots without data weighting. The inhibition plot is calculated by fitting a 4-parameter logistic function to the raw data points using the least squares method. The equation of the 4-parameter logistic function is calculated as follows: Y=(d−a)/((1+(x/c)b))+a, where: a=minimum data level, b=gradient, I […], d=maximum data level, x=inhibitor concentration.
The inhibition activity of CYP11B1 production can also be expressed in percentage inhibition (% inhibition) at a given concentration (e.g. % inhibition at 1 μM), which is the cortisol level when cell is treated with the given concentration of a compound of the invention (e.g. concentration of 1 μM) versus the cortisol excretion when cell is free of the compound of the invention. % inhibition cortisol production=[(Y′−X′)/Y′]×100 wherein X′ is the level of cortisol when the cell is treated with a compound according to anyone of Formulae I to V, or a pharmaceutically acceptable salt thereof; and Y′ is the level of cortisol when the cell is free of compound according to anyone of Formulae I to V.

SMILES	IC50 (CYP11B2 (aldosterone)) [nM]	IC50 (CYP11B1(cortisol)) [nM]
CC(O)c1c(F)cncc1-c1ccc2cc(C#N)ccc2c1 (single isomer, unassigned) [5 (enantiomer-1), 6-(5-fluoro-4-(1-hydroxyethyl)pyridin-3-yl)-2-naphthonitrile]	41.5	367
CC(O)c1c(F)cncc1-c1cc2cc(Cl)c(F)cc2o1 (single isomer, unassigned) [Example 13d (enantiomer-2), 1-(3-(5-chloro-6-fluorobenzofuran-2-yl)-5-fluoropyridin-4-yl)ethanol]	2.5	1070
CC(O)c1c(F)cncc1-c1ccc(C#N)c(Cl)c1 (single isomer, unassigned) [Example 16 (enantiomer-2)]	106	9420
N#Cc1ccc(-c2cnccc2C2CCO2)cc1Cl (single isomer, unassigned) [Example 28 (enantiomer-1), 2-chloro-4-(4-(oxetan-2-yl)pyridin-3-yl)benzonitrile]	23.5	783
Cn1c(-c2cnccc2CO)nc2ccc(Cl)cc21 [Example 37, [3-(6-Chloro-1-methyl-1H-benzoimidazol-2-yl)-pyridin-4-yl]-methanol]	120	12600
CC(O)c1ccncc1-c1ccc(Cl)c(Cl)c1 (stereo not shown) [Example 46, 1-[3-(3,4-Dichloro-phenyl)-pyridin-4-yl]ethanol]	76.5	672

Continued, values first:

IC50 (CYP11B2 (aldosterone)) [nM]	IC50 (CYP11B1(cortisol)) [nM]	SMILES
132	3390	COc1cc(-c2cnccc2C(C)O)ccc1C#N (single isomer, unassigned) [Example 14 (enantiomer-1)]
261		CC1OC(=O)c2cncc(-c3ccc(C#N)c(Cl)c3)c21 (stereo not shown) [Example 24, 2-chloro-4-(1-methyl-3-oxo-1,3-dihydrofuro[3,4-c]pyridin-7-yl)benzonitrile]
144	4240	CC(C)OCC(O)c1c(F)cncc1-c1ccc(C#N)c(Cl)c1 (stereo not shown) [Example 30, 2-Chloro-4-[5-fluoro-4-(1-hydroxy-2-isopropoxy-ethyl)-pyridin-3-yl]-benzonitrile hydrochloride]
154	15000	CC(C)(O)c1c(F)cncc1-c1ccc(C#N)c(Cl)c1 [Example 32, 2-Chloro-4-[5-fluoro-4-(1-hydroxy-1-methyl-ethyl)-pyridin-3-yl]-benzonitrile]
